The results in this text go back to US20180177753A1, “GLYCERYL 3-HYDROXYBUTYRATES FOR MIGRAINE SYMPTOM MANAGEMENT” (NeuroEnergy Ventures, Inc., priority 2016, published 2018).

Structures are written as SMILES.

What all share (type): in vivo
A short description of assay [1]: Self-administration at migraine onset in subjects with chronic repetitive migraine. Conditions: 70 kg male, 20 g at migraine onset, 3 times a day for 35 days. The source says: There is no known or suspect event triggering these events. The subject is instructed to self-administer 20 g of glyceryl tris(3-hydroxybutyrate) upon the onset of the migraine and to continue to self-administer at this dosage 3 times a day for 35 days.
A 60 kg person presents with chronic repetitive migraine with a similar repetitive pattern to the subject of Examples 2 and 3. They are instructed to self-administer 15 g of glyceryl tris(3-hydroxybutyrate) upon the onset of the migraine, rather than the 20 g as in Examples 2 and 3, but otherwise to follow the regimen in Examples 2 and 3.

Assay [2] can be described thus: Self-administration at onset of prodromal visual disturbances in a subject with episodic migraines. Conditions: 60 kg female, 15 g orally within minutes of visual disturbances, 3 times a day for 4 days. The source says: A 60 kg person presents with episodic migraines occurring one such headache occurring and then not again for a number of months. At each event, shortly before the headache begins, the subject has visual disturbances classic of migraine. The subject is requested to self-administer 15 grams of glyceryl tris(3-hydroxybutyrate) upon noticing the next time visual disturbance of this type appear and continue to do so 3 times a day for 4 days. The subject notices such symptoms, and ingests 15 g of glyceryl tris(3-hydroxybutyrate) within minutes of noticing the symptoms.

Assay [3] in a line: Preventive administration before an expected migraine in a subject with chronic repetitive migraine. Conditions: 70 kg male of Example 2, 20 g 3 times a day, days 90 to 130, started about 5-6 days before expected onset. The text has this: The subject of Example 2 discontinues the administration after 35 days, is migraine free for two months and a further episode occurs and Example 2 is followed again, counting the start of this second migraine as day 1, except that after ceasing the administration on day 35, the subject begins administration again on day 90 (about 5-6 days before an expected onset of a further migraine based on this subject's history) and continues administration for an additional 40 days (that is for days 90 to 130).

`CC(O)CC(=O)OCC(COC(=O)CC(C)O)OC(=O)CC(C)O` (stereo not shown) [glyceryl tris(3-hydroxybutyrate)]: in assay [1], the “duration of the usual initial migraine, versus past history” value is listed as “shorter duration”; the “frequency of the repetitive migraines, versus past history” value is “further reduced in frequency”; the “intensity of the repetitive migraines, versus past history” value was “further reduced in frequency and intensity”; the “severity of the usual initial migraine, versus past history” value is “less severe”. In assay [2], the “duration of the headache that follows, versus past episodes” value is reported as “lesser duration” and the “intensity of the headache that follows, versus past episodes” value is reported as “lesser intensity”. In assay [3], the “occurrence of the expected migraine (days 94-95) during the administration period” value is recorded as “no such migraine appears”.
